# Literature values in patent US12502358B1, “Centanafadine multiphasic controlled-release pharmaceutical formulation” (Innovate Therapeutics LLC, priority 2024, dated 2025).
# Tests used:
# [1] = molecular target: norepinephrine reuptake transporter (NET) (Homo sapiens, UniProt P23975); settings: rank among NET, DAT, SERT
# [2] = molecular target: dopamine reuptake transporter (DAT) (Homo sapiens, UniProt Q01959); settings: fraction of the potency towards NET
# [3] = molecular target: serotonin reuptake transporter (SERT) (Homo sapiens, UniProt P31645); settings: fraction of the potency towards NET
# serotonin reuptake transporter (SERT), sequence (P31645 whole entry, species assumed): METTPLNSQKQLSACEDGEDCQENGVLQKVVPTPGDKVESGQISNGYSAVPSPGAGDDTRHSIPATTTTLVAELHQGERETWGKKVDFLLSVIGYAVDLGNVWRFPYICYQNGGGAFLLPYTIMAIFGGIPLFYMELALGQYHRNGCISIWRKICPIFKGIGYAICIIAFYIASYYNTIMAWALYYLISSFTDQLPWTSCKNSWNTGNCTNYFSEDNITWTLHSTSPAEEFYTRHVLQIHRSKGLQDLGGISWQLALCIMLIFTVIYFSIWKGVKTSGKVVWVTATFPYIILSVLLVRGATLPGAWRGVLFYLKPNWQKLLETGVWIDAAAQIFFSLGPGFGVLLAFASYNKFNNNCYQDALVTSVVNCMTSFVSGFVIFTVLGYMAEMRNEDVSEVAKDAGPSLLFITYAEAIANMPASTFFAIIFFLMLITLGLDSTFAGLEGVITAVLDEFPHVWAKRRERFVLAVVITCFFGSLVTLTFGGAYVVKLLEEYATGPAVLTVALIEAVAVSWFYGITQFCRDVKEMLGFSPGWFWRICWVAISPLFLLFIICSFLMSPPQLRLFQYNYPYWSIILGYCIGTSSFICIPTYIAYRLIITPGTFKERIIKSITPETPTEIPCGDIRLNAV
# [4] = per BCS classification
# dopamine reuptake transporter (DAT), sequence (Q01959 whole entry, species assumed): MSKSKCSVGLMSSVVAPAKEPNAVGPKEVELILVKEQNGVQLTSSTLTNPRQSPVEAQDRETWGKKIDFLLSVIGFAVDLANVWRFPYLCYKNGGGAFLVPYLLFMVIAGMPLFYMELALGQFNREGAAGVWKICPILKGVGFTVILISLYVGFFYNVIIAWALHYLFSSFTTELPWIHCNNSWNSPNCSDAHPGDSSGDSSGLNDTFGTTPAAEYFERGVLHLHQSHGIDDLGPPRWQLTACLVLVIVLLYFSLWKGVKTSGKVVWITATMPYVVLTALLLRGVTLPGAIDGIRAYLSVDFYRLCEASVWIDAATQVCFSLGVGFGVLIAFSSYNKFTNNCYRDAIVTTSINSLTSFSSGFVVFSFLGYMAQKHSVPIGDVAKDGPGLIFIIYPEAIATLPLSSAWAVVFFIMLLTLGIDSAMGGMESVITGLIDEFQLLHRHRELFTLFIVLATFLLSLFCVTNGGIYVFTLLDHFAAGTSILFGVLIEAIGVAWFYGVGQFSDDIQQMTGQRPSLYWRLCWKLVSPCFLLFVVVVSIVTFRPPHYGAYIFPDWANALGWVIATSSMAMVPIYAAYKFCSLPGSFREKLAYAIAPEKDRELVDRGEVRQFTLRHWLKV
# norepinephrine reuptake transporter (NET), sequence (P23975 whole entry): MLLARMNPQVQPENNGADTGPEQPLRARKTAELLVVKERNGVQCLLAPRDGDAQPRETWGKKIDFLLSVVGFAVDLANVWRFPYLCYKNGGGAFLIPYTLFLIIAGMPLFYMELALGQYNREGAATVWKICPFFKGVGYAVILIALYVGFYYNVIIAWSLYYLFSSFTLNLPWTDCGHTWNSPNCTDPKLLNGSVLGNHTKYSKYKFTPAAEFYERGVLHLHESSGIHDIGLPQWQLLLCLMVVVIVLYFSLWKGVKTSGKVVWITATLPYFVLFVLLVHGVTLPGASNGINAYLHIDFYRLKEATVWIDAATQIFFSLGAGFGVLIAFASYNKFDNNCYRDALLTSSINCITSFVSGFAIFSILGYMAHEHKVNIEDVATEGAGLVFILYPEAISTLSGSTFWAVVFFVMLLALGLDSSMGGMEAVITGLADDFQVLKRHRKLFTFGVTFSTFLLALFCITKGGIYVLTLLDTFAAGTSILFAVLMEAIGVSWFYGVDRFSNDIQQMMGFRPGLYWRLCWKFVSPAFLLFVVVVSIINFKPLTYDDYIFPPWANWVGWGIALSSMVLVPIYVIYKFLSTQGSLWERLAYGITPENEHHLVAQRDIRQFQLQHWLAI
structure (smiles),measurement,setting,value
"c1ccc2cc([C@]34CNC[C@H]3C4)ccc2c1 [Centanafadine, (1R,5S)-1-(naphthalen-2-yl)-3-azabicyclo[3.1.0]hexane]",potency towards the norepinephrine reuptake transporter (NET),[1],most potency
same,potency towards the dopamine reuptake transporter (DAT) relative to NET,[2],one-sixth as much
same,potency towards the serotonin reuptake transporter (SERT) relative to NET,[3],one-fourteenth as much
same,solubility,[4],highly soluble
